One test has as its system GP2D (KRAS G12D) cells. As to the kind of experiment: 2D cell viability assay (CellTiter-Glo). In kind it is cell-based. To be noted: 4 days. A digest of the protocol: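 GP2D (KRAS G12D) cells, 1000/well in RPMI + 10% FBS, were plated onto compound (1:3 DMSO series) and grown 4 days at 37 °C, 5% CO2 in 2D. CellTiter-Glo luminescence was read; EC50 is the concentration giving 50% signal decrease, from sigmoidal fit.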

Another test concerns AsPC-1 (KRAS G12D) cells. Kind of test: 3D cell viability assay (spheroids, CellTiter-Glo 3D). The class given is cell-based. To be noted: AsPC-1 cells, 3D spheroids, 4 days. A digest of the protocol: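 AsPC-1 cells (1000/well) in DMEM with 10% FBS formed spheroids over 3 days at 37 °C in ultra-low attachment plates, then were treated with 1:3 serial dilutions for 4 days. Viability read by CellTiter-Glo 3D luminescence; EC50 as concentration giving 50% signal decrease, sigmoidal fit.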
For orientation: In ATP-based viability assays light output follows the ATP content of the culture.

For the next test, the target named is GDP-loaded KRAS G12D (Homo sapiens (Human), UniProt P01116, G12D). As to the kind of experiment: KRAS G12D (GDP) biochemical assay (TR-FRET probe displacement). To be noted: 2 hours. The class given is binding. A digest of the protocol:
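Compound pre-incubated 30 min with GDP-loaded KRAS G12D in 50 mM Hepes pH 7.4, 150 mM NaCl, 5 mM MgCl2, 0.005% Tween-20, then Eu-streptavidin and TR-FRET probe added. After 2 h at room temperature, TR-FRET ratio read; IC50 is 50% ratio decrease, sigmoidal fit.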
Background: TR-FRET usually uses a lanthanide donor and a delayed reading to cut background.

Consider 13 compounds from patent publication US20230339981A1, “KRAS G12D MODULATING COMPOUNDS” (priority 2022, published 2023).

GDP-loaded KRAS G12D, sequence (P01116-2 other isoform, or with tags, fused parts or gaps G12D): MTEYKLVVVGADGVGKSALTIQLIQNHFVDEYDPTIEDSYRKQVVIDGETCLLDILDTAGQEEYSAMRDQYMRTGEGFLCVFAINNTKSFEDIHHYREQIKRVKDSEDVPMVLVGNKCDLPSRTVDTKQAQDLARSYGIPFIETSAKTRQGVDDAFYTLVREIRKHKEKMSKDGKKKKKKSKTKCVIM

What is called EC50 is the concentration that produces a half-maximal response. Higher therefore signals a need for much substance. One may read the IC50 as the midpoint of a concentration-inhibition curve. `C#Cc1c(F)ccc2cc(O)cc(-c3nc4c5c(nc(OC[C@@]67CCCN6C[C@H](F)C7)nc5c3F)N3C[C@H]5CC[C@H](N5)[C@H]3CCO4)c12` [Example 123, 5-ethynyl-6-fluoro-4-((6aR,7S,10R)-1-fluoro-13-(((2R,7aS)-2-fluorotetrahydro-1H-pyrrolizin-7a(5H)-yl)methoxy)-5,6,6a,7,8,9,10,11-octahydro-4-oxa-3,11a,12,14,15-pentaaza-7,10-methanocyclohepta[4,5]cycloocta[1,2,3-de]naphthalen-2-yl)naphthalen-2-ol]: the EC50 in the test with GP2D (KRAS G12D) cells (GP2d, 96 h) was found to be 0.5 nM; in the test on AsPC-1 (KRAS G12D) cells (Homo sapiens, ASPC1, 96 h), 3 nM. For the same compound, the IC50 on GDP-loaded KRAS G12D was below 0.1 nM.

Turning to `C#Cc1c(F)ccc2cccc(-c3nc4c5c(nc(OC[C@@]67CCCN6C[C@H](F)C7)nc5c3F)N3C[C@H]5CC[C@H](N5)[C@H]3CCO4)c12` [Example 124, (6aR,7S,10R)-2-(8-ethynyl-7-fluoronaphthalen-1-yl)-1-fluoro-13-(((2R,7aS)-2-fluorotetrahydro-1H-pyrrolizin-7a(5H)-yl)methoxy)-5,6,6a,7,8,9,10,11-octahydro-4-oxa-3,11a,12,14,15-pentaaza-7,10-methanocyclohepta[4,5]cycloocta[1,2,3-de]naphthalene], the EC50 with GP2D (KRAS G12D) cells (GP2d, 96 h) is 26 nM; in the test on AsPC-1 (KRAS G12D) cells (Homo sapiens, ASPC1, 96 h), 81 nM. On GDP-loaded KRAS G12D, this compound displayed an IC50 of 0.5 nM.

As for `CCc1c(F)ccc2cc(O)cc(-c3cc4c5c(nc(OC[C@@]67CCCN6C[C@H](F)C7)nc5c3F)N3C[C@H]5CC[C@H](N5)[C@H]3CC4)c12` [Example 128, 5-ethyl-6-fluoro-4-((1S,4R,14aR)-10-fluoro-8-(((2R,7aS)-2-fluorotetrahydro-1H-pyrrolizin-7a(5H)-yl)methoxy)-1,2,3,4,5,13,14,14a-octahydro-1,4-epiminoazepino[1′,2′:1,7]azepino[2,3,4-de]quinazolin-11-yl)naphthalen-2-ol], the EC50 in the test on GP2D (KRAS G12D) cells (GP2d, 96 h) is 4.1 nM; in the test on AsPC-1 (KRAS G12D) cells (Homo sapiens, ASPC1, 96 h), 59 nM. Further, the IC50 at GDP-loaded KRAS G12D amounted to 0.2 nM.

Turning to `C#Cc1c(F)ccc2cc(O)cc(-c3nc4c5c(nc(OC[C@@]67CCCN6C[C@H](F)C7)nc5c3F)N3C[C@H]5CC[C@H](N5)[C@@H]3CCC4)c12` [Example 132, 5-ethynyl-6-fluoro-4-((6aS,7S,10R)-1-fluoro-13-(((2R,7aS)-2-fluorotetrahydro-1H-pyrrolizin-7a(5H)-yl)methoxy)-5,6,6a,7,8,9,10,11-octahydro-4H-3,11a,12,14,15-pentaaza-7,10-methanocyclohepta[4,5]cycloocta[1,2,3-de]naphthalen-2-yl)naphthalen-2-ol], the EC50 in the test on GP2D (KRAS G12D) cells (GP2d, 96 h) amounted to 2.2 nM; with AsPC-1 (KRAS G12D) cells (Homo sapiens, ASPC1, 96 h), 50 nM. Moreover, the IC50 on GDP-loaded KRAS G12D is 0.2 nM.

Take `C#Cc1c(F)ccc2cc(O)cc(-c3nc4c5c(nc(OC[C@@]67CCCN6CC(OC(F)(F)F)C7)nc5c3F)N3C[C@H]5CC[C@H](N5)[C@H]3CC4)c12` (stereo partly drawn) [Example 139, 5-ethynyl-6-fluoro-4-((5aR,6S,9R)-1-fluoro-12-((cis-2-(trifluoromethoxy)tetrahydro-1H-pyrrolizin-7a(5H)-yl)methoxy)-4,5,5a,6,7,8,9,10-octahydro-3,10a,11,13,14-pentaaza-6,9-methanonaphtho[1,8-ab]heptalen-2-yl)naphthalen-2-ol]: the EC50 with GP2D (KRAS G12D) cells (GP2d, 96 h) amounted to 0.6 nM; in the test on AsPC-1 (KRAS G12D) cells (Homo sapiens, ASPC1, 96 h), 4.2 nM. The same compound had an IC50 on GDP-loaded KRAS G12D of 0.1 nM.

Consider `C#Cc1c(F)ccc2cc(O)cc(-c3nc4c5c(nc(OCC6(CN7CCC(COC(C(F)(F)F)(C(F)(F)F)C(F)(F)F)CC7)CC6)nc5c3F)N3C[C@H]5CC[C@H](N5)[C@H]3CC4)c12` [Example 143, 5-ethynyl-6-fluoro-4-((5aR,6S,9R)-1-fluoro-12-((1-((4-(((1,1,1,3,3,3-hexafluoro-2-(trifluoromethyl)propan-2-yl)oxy)methyl)piperidin-1-yl)methyl)cyclopropyl)methoxy)-4,5,5a,6,7,8,9,10-octahydro-3,10a,11,13,14-pentaaza-6,9-methanonaphtho[1,8-ab]heptalen-2-yl)naphthalen-2-ol], for which the EC50 came to 3.1 nM in the test on GP2D (KRAS G12D) cells (GP2d, 96 h) and 110 nM in the test with AsPC-1 (KRAS G12D) cells (Homo sapiens, ASPC1, 96 h). This compound also showed an IC50 at GDP-loaded KRAS G12D of 1.9 nM.

`C#Cc1c(F)ccc2cc(O)cc(-c3nc4c5c(nc(OC[C@@]67CCCN6[C@H](COC(C6CC6)C(F)(F)F)CC7)nc5c3F)N3C[C@H]5CC[C@H](N5)[C@H]3CC4)c12` (stereo partly drawn) [Example 147, 4-((5aR,6S,9R)-12-(((3S,7aS)-3-((1-cyclopropyl-2,2,2-trifluoroethoxy)methyl)tetrahydro-1H-pyrrolizin-7a(5H)-yl)methoxy)-1-fluoro-4,5,5a,6,7,8,9,1O-octahydro-3,10a,11,13,14-pentaaza-6,9-methanonaphtho[1,8-ab]heptalen-2-yl)-5-ethynyl-6-fluoronaphthalen-2-ol]: the EC50 is 1.3 nM with GP2D (KRAS G12D) cells and 19 nM with AsPC-1 (KRAS G12D) cells. Further, at GDP-loaded KRAS G12D, the IC50 was below 0.1 nM.

Consider `C#Cc1c(F)ccc2cc(O)cc(-c3nc4c5c(nc(OC[C@@]67CCCN6[C@H](COc6ccnc(C(F)(F)F)n6)CC7)nc5c3F)N3C[C@H]5CC[C@H](N5)[C@H]3CC4)c12` [Example 148, 5-ethynyl-6-fluoro-4-((5aR,6S,9R)-1-fluoro-12-(((3S,7aS)-3-(((2-(trifluoromethyl)pyrimidin-4-yl)oxy)methyl)tetrahydro-1H-pyrrolizin-7a(5H)-yl)methoxy)-4,5,5a,6,7,8,9,1O-octahydro-3,10a,11,13,14-pentaaza-6,9-methanonaphtho[1,8-ab]heptalen-2-yl)naphthalen-2-ol], for which the EC50 amounted to 0.7 nM in the test with GP2D (KRAS G12D) cells (GP2d, 96 h) and 7.7 nM in the test on AsPC-1 (KRAS G12D) cells (Homo sapiens, ASPC1, 96 h). Moreover, the IC50 on GDP-loaded KRAS G12D stood at 0.1 nM.

On to `C#Cc1c(F)ccc2cc(O)cc(-c3nc4c5c(nc(OC[C@@]67CCCN6[C@H](COc6cnc(C(F)(F)F)cn6)CC7)nc5c3F)N3C[C@H]5CC[C@H](N5)[C@H]3CC4)c12` [Example 155, 5-ethynyl-6-fluoro-4-((5aR,6S,9R)-1-fluoro-12-(((3S,7aS)-3-(((5-(trifluoromethyl)pyrazin-2-yl)oxy)methyl)tetrahydro-1H-pyrrolizin-7a(5H)-yl)methoxy)-4,5,5a,6,7,8,9,10-octahydro-3,10a,11,13,14-pentaaza-6,9-methanonaphtho[1,8-ab]heptalen-2-yl)naphthalen-2-ol], for which the EC50 with GP2D (KRAS G12D) cells (GP2d, 96 h) stood at 0.3 nM; in the test with AsPC-1 (KRAS G12D) cells (Homo sapiens, ASPC1, 96 h), 5.2 nM. This compound also returned an IC50 at GDP-loaded KRAS G12D of 0.1 nM.

With `C#Cc1c(F)ccc2cc(O)cc(-c3nc4c5c(nc(OC[C@@]67CCCN6[C@H](COc6ncccc6OC(F)(F)F)CC7)nc5c3F)N3C[C@H]5CC[C@H](N5)[C@H]3CC4)c12` [Example 160, 5-ethynyl-6-fluoro-4-((5aR,6S,9R)-1-fluoro-12-(((3S,7aS)-3-(((3-(trifluoromethoxy)pyridin-2-yl)oxy)methyl)tetrahydro-1H-pyrrolizin-7a(5H)-yl)methoxy)-4,5,5a,6,7,8,9,10-octahydro-3,10a,11,13,14-pentaaza-6,9-methanonaphtho[1,8-ab]heptalen-2-yl)naphthalen-2-ol], the EC50 was 1.4 nM in the test on GP2D (KRAS G12D) cells (GP2d, 96 h) and 16 nM in the test with AsPC-1 (KRAS G12D) cells (Homo sapiens, ASPC1, 96 h). Besides, on GDP-loaded KRAS G12D, the IC50 amounted to 0.2 nM.

`C#Cc1c(F)ccc2cc(O)cc(-c3nc4c5c(nc(OCC6(CN7CCC(OC(F)(F)F)CC7)CC6)nc5c3F)N3C[C@H]5CC[C@H](N5)[C@H]3CCC4)c12` [Example 161, 5-ethynyl-6-fluoro-4-((6aR,7S,10R)-1-fluoro-13-((1-((4-(trifluoromethoxy)piperidin-1-yl)methyl)cyclopropyl)methoxy)-5,6,6a,7,8,9,10,11-octahydro-4H-3,11a,12,14,15-pentaaza-7,10-methanocyclohepta[4,5]cycloocta[1,2,3-de]naphthalen-2-yl)naphthalen-2-ol]: the 50% effective concentration (EC50) turned out to be 0.3 nM with GP2D (KRAS G12D) cells (GP2d, 96 h) and 23 nM with AsPC-1 (KRAS G12D) cells (Homo sapiens, ASPC1, 96 h). The IC50 at GDP-loaded KRAS G12D was determined as 0.3 nM.

As to `C#Cc1c(F)ccc2cc(O)cc(-c3nc4c5c(nc(OC[C@@]67CCCN6[C@H](CF)CC7)nc5c3F)N3C[C@H]5CC[C@H](N5)[C@H]3CC4)c12` [Example 165, 5-ethynyl-6-fluoro-4-((5aR,6S,9R)-1-fluoro-12-(((3S,7aS)-3-(fluoromethyl)tetrahydro-1H-pyrrolizin-7a(5H)-yl)methoxy)-4,5,5a,6,7,8,9,10-octahydro-3,10a,11,13,14-pentaaza-6,9-methanonaphtho[1,8-ab]heptalen-2-yl)naphthalen-2-ol], the EC50 with GP2D (KRAS G12D) cells (GP2d, 96 h) was 0.7 nM; with AsPC-1 (KRAS G12D) cells (Homo sapiens, ASPC1, 96 h), 3.9 nM. At GDP-loaded KRAS G12D, this compound had an IC50 below 0.1 nM.

With `C#Cc1c(F)ccc2cccc(-c3nc4c5c(nc(OC[C@@]67CCCN6[C@H](CF)CC7)nc5c3F)N3C[C@H]5CC[C@H](N5)[C@H]3CC4)c12` [Example 166, (5aR,6S,9R)-2-(8-ethynyl-7-fluoronaphthalen-1-yl)-1-fluoro-12-(((3S,7aS)-3-(fluoromethyl)tetrahydro-1H-pyrrolizin-7a(5H)-yl)methoxy)-4,5,5a,6,7,8,9,10-octahydro-3,10a,11,13,14-pentaaza-6,9-methanonaphtho[1,8-ab]heptalene], the EC50 is 3.5 nM in the test with GP2D (KRAS G12D) cells (GP2d, 96 h) and 110 nM with AsPC-1 (KRAS G12D) cells (Homo sapiens, ASPC1, 96 h). The IC50 at GDP-loaded KRAS G12D came to 0.3 nM.
